Laboratory results taken from patent US5587390A, “Imidazole derivatives having a II antagonist activity” (Istituto Luso Farmaco D'Italia S.p.A., priority 1992, dated 1996).

Columns and labels:
[1] = system: A II-induced pressory response; test: inhibition of the A II-induced pressory response in the ganglio-blocked normotensive rat (in vivo); settings: iv
Excerpt: (§1) For the characterization and the evaluation of the effectiveness of the compounds of the invention, in vitro tests (such as the inhibition of the A II-induced contraction in the rabbit aorta and the displacement of ^125 I-Sar^1 -Ile^8 -AT II or [H^3 ] AT II in the rat adrenal cortex) and an in vivo test (the inhibition of the A II-induced pressory response in the ganglio-blocked normotensive rat) were selected.

A II receptor = test: receptor binding test: displacement of 125I-Sar1-Ile8-AT II or [H3] AT II in the rat adrenal cortex
Excerpt: The compounds described in the present invention act as antagonists at the A II receptor level.
as §1

[2] = biological target: T1, A II-induced contraction in the rabbit aorta (Oryctolagus cuniculus, UniProt P34976); test: inhibition of the A II-induced contraction in the rabbit aorta (in vitro); type: cell-based; settings: read-out: pA2 (converted)
T1 construct: A II-induced contraction in the rabbit aorta; from tissue; host or cells: rabbit aorta
T1 sequence (P34976 1-359): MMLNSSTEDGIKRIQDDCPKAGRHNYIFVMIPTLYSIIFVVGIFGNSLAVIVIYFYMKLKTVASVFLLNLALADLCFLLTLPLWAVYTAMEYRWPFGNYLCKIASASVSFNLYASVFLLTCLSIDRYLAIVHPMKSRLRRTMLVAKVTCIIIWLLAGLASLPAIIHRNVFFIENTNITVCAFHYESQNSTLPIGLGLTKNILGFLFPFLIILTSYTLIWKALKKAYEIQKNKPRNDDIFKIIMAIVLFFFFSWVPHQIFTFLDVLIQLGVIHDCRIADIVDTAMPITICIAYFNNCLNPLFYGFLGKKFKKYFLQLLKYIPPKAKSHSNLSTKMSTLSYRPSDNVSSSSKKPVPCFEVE
Excerpt: as §1

| Ki (A II receptor) [nM] | Kb [2] [nM] | Structure (SMILES) | ED50 [1] [mg/kg] |
| --- | --- | --- | --- |
| 6.5 | – | CCCCc1nc(-c2cccc[n+]2[O-])cn1Cc1ccc(-c2ccccc2-c2nn[nH]n2)cc1 [Example 10e, 2-butyl-4-(pyridin-2-yl-N-oxide)-1-[[2'-(tetrazol-5-yl)biphenyl-4-yl]methyl]-1H-imidazole] | 0.54 |
| – | 10 | CCCCc1nc(-c2ccccc2C(=O)O)cn1Cc1ccc(-c2ccccc2-c2nnn[nH]2)cc1 [Example 10, 2-Butyl-4-(2-carboxyphenyl)-1-[[2'-(tetrazol-5-yl) -biphenyl-4-yl]methyl]-1H-imidazole] | 0.52 |
